The values that follow are results of earlier work, collected in article PMC12503259, “Establishment of an in vivo analytical method for detecting total anti-UFH activity and pharmacokinetic study in PS and R15 in rats” (PLOS One, 2025).

The conditions of series [1]: clinical practice; cited from earlier work.
Source text: In clinical practice, PS is typically administered at 1.2 times the anti-heparin activity of circulating UFH to achieve complete neutralization [40, 41].
For series [2] the following is noted: UFH 300 U·kg^-1 in rats, preliminary experimental data; cited from earlier work. The text has this: A dose of 300 U· kg^-1 dose of UFH is considered clinically effective. […] Accordingly, we performed pharmacokinetic studies of PS at 300 U kg^-1, and of R15 at 300, 900, and 2700 U· kg^-1 to determine whether R15 follows linear or nonlinear pharmacokinetics.

Regarding Unfractionated heparin [UFH], in series [1], the T1/2 was 1 to 2 h. For the same substance, in series [2], the duration of heparinization entry was “at least 4 hours”.
